The subject of this assay is HCV genotype 1a replicon cell line. As to the kind of experiment: HCV Genotype 1a Replicon Assay. The format is cell-based. To be noted: Hepatitis C virus, Huh7.5 cell background, NS3-specific protease activity in lysates, 48 or 72 hours, read-out: pEC50 Genotype 1a (converted). How it is done:
Assay 2: HCV Genotype 1a Replicon Assay
The HCV genotype 1a replicon cell line was obtained from Apath LLC (APC89; Huh7.5 cell background). This subgenomic replicon contains the N-terminus of the HCV core protein fused to the neomycin-resistance selectable marker. The EMCV IRES lies downstream and drives expression of the non-structural proteins NS3-NS5B. Compound potencies were determined using the NS3-specific protease activity in lysates as a measurement of compound inhibition of replicon levels.
Cells were grown at 37° C. in a 5% CO2 humidified incubator in DMEM (Invitrogen) with 10% FBS (HyClone), 1×NEAA (Invitrogen), 1× Pen-Strep (Invitrogen), and 850 μg/mL G418 (Invitrogen). On day 1 of the assay, cells were plated at 15,000 cells/well in black 96-well tissue culture plates (Costar) in 200 μL media lacking G418. […] Compounds were initially diluted in DMSO and then diluted another 200× in media to bring the final DMSO concentration down to 0.5%. The cells were incubated with test compounds for 48 or 72 hours. At the end of the incubation period, media and compound were removed from the plates.
To determine the NS3-specific protease activity in lysates, the cells were lysed at room temperature in 50 μL/well of 50 mM Hepes pH 7.5, 150 mM NaCl, 15% Glycerol, 0.15% Triton X-100, 10 mM DTT for 20 minutes with shaking. 50 μL of an NS3/4a protease-specific FRET substrate (Anaspec RET S1 Cat#22991) was then added to the wells at a final concentration of 15 μM. The plates were incubated at 37° C. for 20 minutes, which corresponds to a timepoint at which the protease activity is still in the linear phase. Protease activity was determined by measuring fluorescence (Excitation: 340 nm; Emission: 509 nm).
To analyze the data, the fluorescence was plotted vs. the compound concentration, and EC50 values were determined from a 4-parameter robust fit model using GraphPad Prism software.
In general terms: Replicon systems follow genome replication, usually without infectious particles.

As for `COC(=O)N[C@H](C(=O)N1CC(C)=C[C@H]1c1nc(-c2ccc(-c3ccc(C(=O)Nc4ccc(N5CC(C)N(C(=O)C6(O)CC6(C)C)C[C@H]5C)nc4)cc3OC(F)(F)F)cc2)c[nH]1)C(C)C` (stereo partly drawn) [Example 2-6], the EC50 was 0.1 to 1 nM.
The figure for `COC(=O)N[C@H](C(=O)N1[C@@H]2C[C@@H]2CC[C@H]1c1nc(-c2ccc(-c3cc(Cl)c(NC(=O)c4ccc(N5CCN(C(=O)C(C)(C)CO)C[C@H]5C)nc4)cc3OC(F)(F)F)cc2)c[nH]1)C(C)C` [Example 5-9] is < 0.1 nM; for `COC(=O)N[C@H](C(=O)N1C[C@@H](C)C[C@H]1c1nc2c(ccc3cc(-c4ccc(C(=O)Nc5ccc(N6CC(C)N(C(=O)C(C)(C)C)C[C@H]6C)nc5)cc4OC(F)(F)F)ccc32)[nH]1)C(C)C` (stereo partly drawn) [Example 3-9] it is < 0.1 nM; for `COC(=O)N[C@H](C(=O)N1C[C@H]2[C@@H]([C@H]1c1nc(-c3ccc(-c4cc(Cl)c(NC(=O)c5ccc(N6CCN(C(=O)C(C)(C)C)C[C@H]6C)nc5)cc4OC(F)(F)F)cc3)c[nH]1)C2(C)C)C(C)C` [Example 5-11] it is 0.1 to 1 nM.
Next, `COC(=O)N[C@H](C(=O)N1CC(C)=C[C@H]1c1nc(-c2ccc(-c3cc(Cl)c(NC(=O)c4ccc(N5CCN(C(=O)C(C)(C)C)C[C@H]5C)nc4)cc3OC(F)(F)F)cc2)c[nH]1)C(C)C` [Example 1, [(S)-1-((S)-2-{4-[5′-Chloro-4′-({6-[(R)-4-(2,2-dimethyl-propionyl)-2-methyl-piperazin-1-yl]-pyridine-3-carbonyl}-amino)-2′-trifluoromethoxy-biphenyl-4-yl]-1H-imidazol-2-yl}-4-methyl-2,5-dihydro-pyrrole-1-carbonyl)-2-methyl-propyl]-carbamic acid methyl ester]: < 0.1 nM.
Next, `COC(=O)N[C@H](C(=O)N1CC(C)=C[C@H]1c1nc(-c2ccc(-c3ccc(C(=O)Nc4ccc(N5CC(C)N(C(=O)C6CC6(Cl)Cl)C[C@H]5C)nc4)cc3OC(F)(F)F)cc2)c[nH]1)C(C)C` (stereo partly drawn) [Example 2-7]: 0.1 to 1 nM.
As for `COC(=O)N[C@H](C(=O)N1CC(C)=C[C@H]1c1nc(-c2ccc(-c3ccc(C(=O)Nc4ccc(N5CC(C)N(C(=O)CNC(C)=O)C[C@H]5C)nc4)cc3OC(F)(F)F)cc2)c[nH]1)C(C)C` (stereo partly drawn) [Example 2-5], the EC50 was 0.1 to 1 nM.
Next, `COC(=O)N[C@H](C(=O)N1CC(C)=C[C@H]1c1nc(-c2ccc(-c3ccc(C(=O)Nc4ccc(N5CC(C)N(C(=O)C6CC6)C[C@H]5C)nc4)cc3OC(F)(F)F)cc2)c[nH]1)C(C)C` (stereo partly drawn) [Example 2-1]: 0.1 to 1 nM; `COC(=O)N[C@H](C(=O)N1[C@@H]2CC[C@@H](C2)[C@H]1c1nc(-c2ccc(-c3cc(Cl)c(NC(=O)c4ccc(N5CCN(C(=O)C(C)(C)C)C[C@H]5C)nc4)cc3OC(F)(F)F)cc2)c[nH]1)C1CCOCC1` [Example 5-4]: < 0.1 nM.
Regarding `COC(=O)N[C@H](C(=O)N1CC(C)=C[C@H]1c1nc(-c2ccc(-c3ccc(C(=O)Nc4ccc(N5CC(C)N(C(=O)C(C)(C)C)C[C@H]5C)nc4)cc3OC(F)(F)F)cc2)c[nH]1)C(C)C` (stereo partly drawn) [Example 2-3], the EC50 is 0.1 to 1 nM.
The figure for `COC(=O)N[C@H](C(=O)N1C[C@@H](C)C[C@H]1c1nc2c(ccc3cc(-c4ccc(C(=O)Nc5ccc(N6CC(C)N(C(=O)C7CC7)C[C@H]6C)nc5)cc4OC(F)(F)F)ccc32)[nH]1)C(C)C` (stereo partly drawn) [Example 3-11] is < 0.1 nM; for `COC(=O)N[C@H](C(=O)N1C[C@H]2[C@@H]([C@H]1c1nc(-c3ccc(-c4cc(Cl)c(NC(=O)c5ccc(N6CCN(C(=O)C(C)(C)C)C[C@H]6C)nc5)cc4OC(F)(F)F)cc3)c[nH]1)C2(C)C)C1CCOCC1` [Example 5-12] it is 0.1 to 1 nM.
Take `CNC(=O)N1C[C@@H](C)N(c2ccc(NC(=O)c3ccc(-c4ccc(-c5c[nH]c([C@@H]6C=C(C)CN6C(=O)[C@@H](NC(=O)OC)C(C)C)n5)cc4)c(OC(F)(F)F)c3)cn2)CC1C` (stereo partly drawn) [Example 2-2]: the EC50 is 0.1 to 1 nM.
Next, `COC(=O)N[C@H](C(=O)N1CC(C2CC2)=C[C@H]1c1nc(-c2ccc(-c3cc(Cl)c(NC(=O)c4ccc(N5CCN(C(=O)C(C)(C)C)C[C@H]5C)nc4)cc3OC(F)(F)F)cc2)c[nH]1)C(C)C` [Example 3, [(S)-1-((S)-2-{4-[5′-Chloro-4′-({6-[(R)-4-(2,2-dimethyl-propionyl)-2-methyl-piperazin-1-yl]-pyridine-3-carbonyl}-amino)-2′-trifluoromethoxy-biphenyl-4-yl]-1H-imidazol-2-yl}-4-cyclopropyl-2,5-dihydro-pyrrole-1-carbonyl)-2-methyl-propyl]-carbamic acid methyl ester]: < 0.1 nM; `[2H]C([2H])([2H])C1(C([2H])([2H])[2H])CC1C(=O)N1C[C@@H](C)N(c2ccc(NC(=O)c3ccc(-c4ccc5c(ccc6[nH]c([C@@H]7C[C@H](C)CN7C(=O)[C@@H](NC(=O)OC)C(C)C)nc65)c4)c(OC(F)(F)F)c3)cn2)CC1C` (stereo partly drawn) [Example 3-8]: < 0.1 nM; `COC(=O)N[C@H](C(=O)N1C[C@@H](C)C[C@H]1c1nc2c(ccc3cc(-c4ccc(C(=O)Nc5ccc(N6CC(C)N(C(=O)N(C)C)C[C@H]6C)nc5)cc4OC(F)(F)F)ccc32)[nH]1)C(C)C` (stereo partly drawn) [Example 3-10]: < 0.1 nM.
`COC(=O)N[C@H](C(=O)N1[C@@H]2C[C@@H]2CC[C@H]1c1nc(-c2ccc(-c3cc(Cl)c(NC(=O)c4ccc(N5CCN(C(=O)[C@H]6CC6(C)C)C[C@H]5C)nc4)cc3OC(F)(F)F)cc2)c[nH]1)C(C)C` [Example 5-8]: the EC50 is < 0.1 nM.
Next, `COC(=O)N[C@H](C(=O)N1CC(C)=C[C@H]1c1nc(-c2ccc(-c3ccc(C(=O)Nc4ccc(N5CC(C)N(C(=O)C(C)(C)NC(=O)C6CCC6)C[C@H]5C)nc4)cc3OC(F)(F)F)cc2)c[nH]1)C(C)C` (stereo partly drawn) [Example 2-9]: 0.1 to 1 nM; `COC(=O)N[C@H](C(=O)N1CC(C)=C[C@H]1c1nc(-c2ccc(-c3cc(Cl)c(NC(=O)c4ccc(N5CCN(C(=O)[C@H]6CC6(C)C)C[C@H]5C)nc4)cc3OC(F)(F)F)cc2)c[nH]1)C(C)C` [Example 2, ((S)-1-{(S)-2-[4-(5′-Chloro-4′-{[6-((R)-4-(S)-2,2-dimethylcyclopropanecarbonyl-2-methyl-piperazin-1-yl)-pyridine-3-carbonyl]-amino}-2′-trifluoromethoxy-biphenyl-4-yl)-1H-imidazol-2-yl]-4-methyl-2,5-dihydro-pyrrole-1-carbonyl}-2-methyl-propyl)-carbamic acid methyl ester]: < 0.1 nM.
As for `COC(=O)N[C@H](C(=O)N1C[C@@H](C)CC[C@H]1c1nc(-c2ccc(-c3cc(Cl)c(NC(=O)c4ccc(N5CCN(C(=O)C(C)(C)CO)C[C@H]5C)nc4)cc3OC(F)(F)F)cc2)c[nH]1)C(C)C` [Example 11, [(S)-1-((2S,5S)-2-{4-[5′-Chloro-4′-({6-[(R)-4-(3-hydroxy-2,2-dimethyl-propionyl)-2-methyl-piperazin-1-yl]-pyridine-3-carbonyl}-amino)-2′-trifluoromethoxy-biphenyl-4-yl]-1H-imidazol-2-yl}-5-methyl-piperidine-1-carbonyl)-2-methyl-propyl]-carbamic acid methyl ester], the EC50 was 0.1 to 1 nM.
For `COC(=O)N[C@H](C(=O)N1CC(C)CC[C@H]1c1nc(-c2ccc(-c3cc(Cl)c(NC(=O)c4ccc(N5CCN(C(=O)C(C)(C)C)C[C@H]5C)nc4)cc3OC(F)(F)F)cc2)c[nH]1)C(C)C` (stereo partly drawn) [Example 1-5], the EC50 was 0.1 to 1 nM.
Next, `COC(=O)N[C@H](C(=O)N1CC(C2CC2)=C[C@H]1c1nc(-c2ccc(-c3ccc(C(=O)Nc4ccc(N5CCN(C(=O)C(C)(C)C)C[C@H]5C)nc4)cc3OC(F)(F)F)cc2)c[nH]1)C(C)C` [Example 12, ((S)-1-{(S)-4-Cyclopropyl-2-[4-(4′-{6-[(R)-4-(2,2-dimethyl-propionyl)-2-methyl-piperazin-1-yl]-pyridin-3-ylcarbamoyl}-2′-trifluoromethoxy-biphenyl-4-yl)-1H-imidazol-2-yl]-2,5-dihydro-pyrrole-1-carbonyl}-2-methyl-propyl)-carbamic acid methyl ester]: 0.1 to 1 nM; `COC(=O)N[C@H](C(=O)N1C[Si](C)(C)C[C@H]1c1nc(-c2ccc(-c3cc(Cl)c(NC(=O)c4ccc(N5CCN(C(=O)C(C)(C)C)C[C@H]5C)nc4)cc3OC(F)(F)F)cc2)c[nH]1)C(C)C` [Example 6, [(S)-1-((R)-5-{4-[5′-Chloro-4′-({6-[(R)-4-(2,2-dimethyl-propionyl)-2-methyl-piperazin-1-yl]-pyridine-3-carbonyl}-amino)-2′-trifluoromethoxy-biphenyl-4-yl]-1H-imidazol-2-yl}-3,3-dimethyl-[1,3]azasilolidine-1-carbonyl)-2-methyl-propyl]-carbamic acid methyl ester]: 0.1 to 1 nM; `COC(=O)N[C@H](C(=O)N1[C@@H]2CC[C@@H](C2)[C@H]1c1nc(-c2ccc(-c3cc(Cl)c(NC(=O)c4ccc(N5CCN(C(=O)C(C)(C)C)C[C@H]5C)nc4)cc3OC(F)(F)F)cc2)c[nH]1)C(C)C` [Example 5-5]: 0.1 to 1 nM.

For the origin of these results see patent publication US9365549B2, “Hepatitis C virus inhibitors” (THERAVANCE BIOPHARMA R&D IP, LLC, priority 2012, dated 2016).
